Results as given in BigSolDB 2.1.

O=C(Nc1c(Cl)cncc1Cl)c1ccc(OC(F)F)c(OCC2CC2)c1
solubility (mole fraction)
Conditions | 278.2 K | 283.2 K | 288.2 K | 293.2 K | 298.2 K | 303.2 K | 308.2 K | 313.2 K | 318.2 K | 323.2 K
in 2-butanone | 0.000102 | 0.00013 | 0.000165 | 0.000204 | 0.000264 | 0.000351 | 0.000448 | 0.000586 | 0.00081 | 0.00118
in 2-pentanone | 7.4e-05 | 9.8e-05 | 0.000114 | 0.00016 | 0.000219 | 0.000311 | 0.000402 | 0.000551 | 0.000756 | 0.00101
in DMF | 4e-06 | 6e-06 | 8e-06 | 1.3e-05 | 1.9e-05 | 3.1e-05 | 4.3e-05 | 6.1e-05 | 8.6e-05 | 0.000119
in DMSO | 3.3e-05 | 4.2e-05 | 6.3e-05 | 9e-05 | 0.000132 | 0.000171 | 0.000236 | 0.00033 | 0.000457 | 0.000629
in ethanol | 6.5e-05 | 8.8e-05 | 0.000106 | 0.00015 | 0.000208 | 0.000297 | 0.000387 | 0.000533 | 0.000734 | 0.000989
in n-butanol | 4.5e-05 | 6.2e-05 | 7.8e-05 | 0.000112 | 0.000156 | 0.000226 | 0.000296 | 0.000411 | 0.00057 | 0.000782
in n-propanol | 4.9e-05 | 7.6e-05 | 9.4e-05 | 0.000131 | 0.000175 | 0.000244 | 0.000328 | 0.000455 | 0.000625 | 0.000868

Cc1nnc(C(C)C)n1C1C[C@H]2CC[C@@H](C1)N2CC[C@H](NC(=O)C1CCC(F)(F)CC1)c1ccccc1 (stereo not given in full)
solubility (mole fraction)
Conditions | 278.2 K | 283.2 K | 288.2 K | 293.2 K | 298.2 K | 303.2 K | 308.2 K | 313.2 K | 318.2 K | 323.2 K
in 2-butanone | 0.000179 | 0.000262 | 0.000349 | 0.000491 | 0.000715 | 0.00102 | 0.00137 | 0.00193 | 0.00257 | 0.00351
in 2-pentanone | 0.000152 | 0.000224 | 0.000296 | 0.000418 | 0.000607 | 0.00087 | 0.00119 | 0.00168 | 0.00229 | 0.00316
in DMF | 3.5e-05 | 5.6e-05 | 7.6e-05 | 0.000112 | 0.000168 | 0.000244 | 0.000341 | 0.000507 | 0.000689 | 0.00101
in DMSO | 1.4e-05 | 2.4e-05 | 3.7e-05 | 5.6e-05 | 8.4e-05 | 0.000128 | 0.000173 | 0.000263 | 0.000358 | 0.00053
in ethanol | 0.000281 | 0.000404 | 0.00052 | 0.000716 | 0.00102 | 0.00144 | 0.00189 | 0.00263 | 0.00344 | 0.00461
in n-butanol | 0.0002 | 0.000293 | 0.000383 | 0.000533 | 0.000778 | 0.00112 | 0.0015 | 0.00212 | 0.00282 | 0.00387
in n-propanol | 0.00021 | 0.00031 | 0.00042 | 0.000609 | 0.00088 | 0.00124 | 0.00167 | 0.00235 | 0.00311 | 0.00421
in water | 6e-06 | 9e-06 | 1.2e-05 | 1.7e-05 | 2.5e-05 | 3.6e-05 | 4.8e-05 | 6.9e-05 | 9.2e-05 | 0.000129
